# Measurements published in patent publication US20040009955A1, “Method of prophylaxis” (priority 2002, published 2004).
# System: MT-1 breast cancer cells
# Experiment: Symptom free survival of nude rats inoculated with MT-1 breast cancer cells (treatment efficacy against skeletal metastases)
# Type: in vivo, nude rats (Han: rnu/rnu Rowett)
# Conditions: for increase in survival relative to the control: Wilcoxon rank sum test
# [1] = Without Aredia, 300 kBq/ka ^223Ra (regimen A)
# Description: The effect of ^223Ra in prolonging symptom free survival of rate was studied for two treatment regimens [A] comparative and [B] according to the invention.
# Treatment regimen [A]: Animals were treated seven days after tumor cell inoculation. At this time animal body weights varied between 80 and 110 grams and animals were randomized in groups so the average weight for a group was about 100 g at the time of treatment. The treatment groups received 11 or 30 kBq of ^223Ra administered by tail vein injection while animals in the control group were injected with an equivalent volume of 5 mM sodium citrate solution.
# Treatment regimen [B]: 3-Amino-1-hydroxypropylidene bisphosphonate, di-sodium salt (Aredia™, Novartis AG, Switzerland), was added as a supplemental treatment to ^223Ra. Animals in the treatment groups were treated on day 7 after tumor cell inoculation with 10 or 30 kBq of ^223Ra. The following day, 1.5 mg/kg b.w. of Aredia™, was administered by i.v. injection. Animals in the control group received 5 mM sodium citrate solution on day 7 and 1.5 mg/kg b.w. of Aredia™ on day 8.
# Symptom free animals were followed for at least 50 days after the treatment. The significance of treatment response was related to symptom free survival and evaluated using the Wilcoxon rank sum test.
smiles,measurement,setting,value
"[223Ra] [^223Ra, radium-223]",survival improvement compared to the control group,"60 kBq ^223Ra, regimen A",not significant
same,symptom free survivors,"60 kBq ^223Ra, regimen A (1/5)",20%
same,symptom free survivors beyond 50 days,"100 kBq/kg ^223Ra, regimen A (5/14)",36%
same,increase in survival relative to the control,"100 kBq/kg ^223Ra, regimen A",significant at the 1% level
same,"increase in survival compared to the control group, groups taken together","100 kBq/kg and 300 kBq/kg ^223Ra groups taken together, regimen A, P <0.05",significant
same,increase in survival relative to the control,"300 kBq/kg ^223Ra, regimen A",significant at the 1% level
same,Survival beyond 67 day,"Without Aredia, 100 kBq/kg ^223Ra (regimen A)",33%
same,Mean survival,"Without Aredia, 100 kBq/kg ^223Ra i.v. day 7 after tumor cell inoculation (regimen A)",38 days
same,Survival beyond 67 day,[1],0%
same,Survival range,[1],27-61
same,Mean survival,"Without Aredia, 300 kBq/ka ^223Ra i.v. day 7 (regimen A)",38 days
